Measured values as given in article PMC10538940, “Evaluating Scalable Supervised Learning for Synthesize-on-Demand Chemical Libraries” (Journal of Chemical Information and Modeling, 2023).

Biological target: PriA-SSB (Klebsiella pneumoniae subsp. pneumoniae, UniProt A6TGC5)
Assay: PriA-SSB AlphaScreen (AS) dose-response screen of Enamine REAL compounds
Format: biochemical, Klebsiella pneumonia
Conditions: not given
Procedure: We screened the MLPCN compound library using an AlphaScreen (AS) assay at a single concentration (33.3 μm) following the same protocol previously used to screen the LC1234 libraries.[27],[28] Briefly, library compounds and controls were dispensed from 10 mM DMSO stocks into white 1536-well plates with an Echo 550 acoustic liquid handler. Next, 3 μL of a master mix was added to each well using a Mantis liquid handler with a high-volume silicone chip to yield a final reaction mixture containing 10 mM HEPES-HCl (pH 7.5), 150 mM NaCl, 1 mM MgCl2, 10 mM dithiothreitol, 1 mg/mL bovine serum albumin, 0.01% Triton X-100, 0.1 μM Klebsiella pneumonia PriA (with N-terminal 6×His tag), 0.1 μM Biotinylated-SSBct (N-Biotin-Trp-Met-Asp-Phe-Asp-Asp-Asp-Ile-Pro-Phe-C), 5 μg/mL of both AS acceptor and donor beads, and 33.3 μm of compound. For positive and negative control wells, the compound was replaced with 25 μM SSBct peptide (N-Trp-Met-Asp-Phe-Asp-Asp-Asp-Ile-Pro-Phe-C) or 25 μM ΔFSSBct (N-Trp-Met-Asp-Phe-Asp-Asp-Asp-Ile-Pro-C), respectively. Plates were centrifuged briefly and rocked for an hour at room temperature. Then, the AS signal of each well was measured with a PheraStar plate reader using a 0.1 s settling time, a 0.3 s excitation, a 0.04 s delay, and a 0.6 s integration time. AS signals for each well were adjusted as previously described to reduce the impact of plate and edge effects.[28] We calculated a Z′ factor for each plate[61] and repeated plates with Z′ < 0.5. In addition, we calculated the % inhibition relative to the controls for each compound. We retested compounds with ≥35% inhibition that also passed PAINS filters[62],[63] with the same assay to confirm activity.
All 68 compounds were initially screened in four replicates at eight concentrations ranging from 515.6 nm to 66 μm. We defined compounds whose median % inhibition at 33 μm was at least 50%, the same threshold used for the AMS screen, as initial hits. We repeated the dose–response curve screens for two additional rounds of ten compounds each, expanding the range of concentrations tested to improve the quality of the curve fits (Appendix A.9). We defined confirmed hits as those with a dose–response curve in curve class[82] 1.2 or in curve class 2.2 with an IC50 95% upper confidence limit within the tested range of concentrations. We used the Collaborative Drug Discovery Vault software[83] to fit dose–response curves, calculate IC50 values and the 95% upper and lower confidence limits, and define curve classes. […]
A.9 Enamine REAL Dose-Response Curves
We generated three sets of dose-response curves: eight-point curves with four replicates for all 68 Enamine compounds, 16-point curves with eight replicates for 10 compounds, and another set of 16-point curves with six replicates for 10 compounds. The eight-point dose-response curves started with an initial concentration of 66 µm and progressively divided the concentration in half until reaching 515.6 nm. Both 16-point dose-response curves started with an initial concentration of 100 µm, then 66.7 µm, and then progressively divided the concentration in half until reaching 4.2 nm. All dose-response screens followed the same protocol used for the MLPCN library. The dose-response curve images are available in our […]
We generated the 16-point dose-response curves because we were unable to reliably estab-lish IC50 values for some compounds in the eight-point screen. The minimum concentrations tested were not low enough. When reporting IC50 values and bounds in Table 4 we used the screening data from the highest-quality dose-response curve. The second set of 16-point curves were the highest quality because they had 16 concentrations and were unaﬀected by any spatial plate eﬀects. The ﬁrst set of 16-point curves were the next highest quality because they also had 16 concentrations and the most replicates. However, some of the readings at the lowest concentration in these curves were skewed due to assay spatial eﬀects at the plate […]
edge. […]

Sequence of PriA-SSB (A6TGC5 whole entry): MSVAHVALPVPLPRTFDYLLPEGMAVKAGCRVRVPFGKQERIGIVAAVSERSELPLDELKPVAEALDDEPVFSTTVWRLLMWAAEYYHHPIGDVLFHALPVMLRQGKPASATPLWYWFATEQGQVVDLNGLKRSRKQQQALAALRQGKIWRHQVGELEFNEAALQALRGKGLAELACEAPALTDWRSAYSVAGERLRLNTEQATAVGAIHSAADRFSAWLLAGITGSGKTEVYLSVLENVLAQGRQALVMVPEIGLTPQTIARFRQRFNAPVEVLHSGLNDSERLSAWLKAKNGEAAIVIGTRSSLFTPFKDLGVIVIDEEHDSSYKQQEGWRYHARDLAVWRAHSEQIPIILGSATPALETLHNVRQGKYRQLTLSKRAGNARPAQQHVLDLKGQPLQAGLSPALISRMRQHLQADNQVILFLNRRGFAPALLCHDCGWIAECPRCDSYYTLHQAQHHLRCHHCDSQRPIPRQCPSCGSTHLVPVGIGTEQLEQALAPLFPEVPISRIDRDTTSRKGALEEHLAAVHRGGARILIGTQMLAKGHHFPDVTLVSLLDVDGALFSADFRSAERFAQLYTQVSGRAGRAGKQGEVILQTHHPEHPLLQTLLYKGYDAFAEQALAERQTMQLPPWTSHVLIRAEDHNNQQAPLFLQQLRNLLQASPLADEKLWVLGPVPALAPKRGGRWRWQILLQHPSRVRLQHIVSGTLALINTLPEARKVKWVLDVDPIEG

Row | Compound | IC50
1 | Cc1n[nH]c(SCC(=O)Nc2nnc(-c3ccccn3)[nH]2)n1 [Z1313381195] | 15.5 µM
2 | O=C(CN1C(=O)COc2ccc([N+](=O)[O-])cc21)Nc1nc(-c2ccccn2)cs1 [Z109132782] | 12.4 µM
3 | O=C1CC2(CCOC2)C(C(=O)Nc2nc(-c3ccccn3)cs2)CN1 (stereo not drawn) [Z3297024656] | 12.6 µM
4 | CC(C)N(C)S(=O)(=O)c1ccc(F)c(C(=O)Nc2nc(-c3ccccn3)cs2)c1 [Z339655406] | 6.8 µM
5 | CC1CC(Nc2nc(-c3ccccn3)nc3c2CCC3)CC(C)N1 (stereo not drawn) [Z3395547714] | 12.1 µM

Same assay, conditions: eight concentrations 515.6 nm to 66 μm; includes some initial hits not confirmed

Row | Compound | Enamine Inactive (not confirmed as hit in full dose-response curves)
6 | O=C(Nc1nc(-c2ccccn2)cs1)C1(C2CCCCO2)CCCO1 (stereo not drawn) [Z3075781550] | Inactive
7 | O=C(Cc1ccc(S(=O)(=O)N2CCOCC2)s1)Nc1nc(-c2ccccn2)cs1 [Z29467739] | Inactive
8 | O=[N+]([O-])c1ncn(Cc2cccc3cccnc23)n1 [Z666250890] | Inactive
9 | OCCCN(CCO)c1ccc2ccc3cccnc3c2n1 [Z3557694708] | Inactive
10 | Nc1ncc(-c2ccccn2)cn1 [Z1255380138] | Inactive
11 | c1ccc(-c2n[nH]c3ccccc23)nc1 [Z3242476057] | Inactive
12 | c1cnc2c(SCCn3cncn3)cccc2c1 [Z1116571364] | Inactive
13 | CCOC(=O)c1[nH]c(C)c(C(=O)CSc2cccc3cccnc23)c1C [Z225905608] | Inactive
14 | COC(C)COc1ccc2ccc3cccnc3c2n1 (stereo not drawn) [Z3634004206] | Inactive
15 | Clc1ccc(CN2CCOCCOCC2)c2ncccc12 [Z3652859018] | Inactive
16 | c1ccc(-c2cnc3n2CCC3)nc1 [Z3347084877] | Inactive
17 | O=C(O)c1cc(C(=O)N2CCS(=O)(=O)CC2)ccn1 [Z1443864314] | Inactive
18 | CC1(C)CC(CSc2cccc3cccnc23)=NO1 [Z3638513333] | Inactive
19 | Fc1cccc2[nH]c(-c3ccccn3)nc12 [Z666485712] | Inactive
20 | Cc1cc(-c2ccccn2)n[nH]1 [Z3225506284] | Inactive
21 | CN(C)CCN(C)c1ccc2ccc3cccnc3c2n1 [Z3557781825] | Inactive
22 | C1=C(c2cccc3cccnc23)CCNC1 [Z3238971184] | Inactive

Row | Compound | Enamine Inactive (not confirmed as hit in full dose-response curves)
23 | CC(C)c1ncc(-c2cccc3cccnc23)n1C [Z2739840324] | Inactive
24 | c1cnc2c(Cn3ccnc3)cccc2c1 [Z241926076] | Inactive
25 | CC(C)(C)c1ncc(-c2cccc3cccnc23)o1 [Z2998111045] | Inactive
26 | O=C(CSc1cccc2cccnc12)Nc1cccc(N2CCCC2=O)c1 [Z202503096] | Inactive
27 | O=C(O)CSc1ccc([N+](=O)[O-])c2cccnc12 [Z285779920] | Inactive
28 | Clc1cccnc1NN=Cc1ccccn1 [Z734817070] | Inactive
29 | O=c1[nH]c(NN=Cc2ccccn2)nc2ccccc12 [Z1407899729] | Inactive
30 | Cc1ccc(-n2nc(C)cc2NC(=O)CSc2cccc3cccnc23)cc1 [Z71174619] | Inactive
31 | O=[N+]([O-])c1cc(Cl)cc(C=Nc2ccc(Cl)c3ncccc23)c1O [Z314947084] | Inactive
32 | Cc1nn(C(C)C)cc1-c1ccc2cccnc2c1C [Z2618185084] | Inactive
33 | c1ccc(-c2csc(NC3COC4(CCC4)C3)n2)nc1 (stereo not drawn) [Z3295148399] | Inactive
34 | c1cc2c(c(-c3cccc4cccnc34)c1)CNC2 [Z3484513235] | Inactive
35 | CCc1nc(C)c(CSc2cccc3cccnc23)o1 [Z2273856428] | Inactive
36 | CCOC(=O)c1c(C)[nH]c(C(=O)CSc2cccc3cccnc23)c1C [Z71173293] | Inactive
37 | Cc1cccc2nc(CSc3cccc4cccnc34)cn12 [Z56788250] | Inactive
38 | O=c1[nH]ncc(N/N=C/c2ccccn2)c1Cl [Z114886052] | Inactive
39 | c1cncc(CSCc2cccc3cccnc23)c1 [Z2146195633] | Inactive
